Measured values taken from patent US20150297619A1, “METHODS AND COMPOSITIONS FOR PRESERVING THE MUCOSAL BARRIER” (priority 2014, published 2015).

How the values were obtained:
20 kDa serine proteases = test: Gelatin gel zymography of pre-ischemic intestinal homogenates renatured with inhibitor: serine protease bands; format: biochemical, rat; settings: inhibitor in renaturing and developing buffer: tranexamic acid 20 mM, doxycycline 1 mg/ml, GM-6001 1 ug/ml
Protocol: Gelatin Gel Zymography—Segments 2 and 7 from pre-ischemic intestines were homogenized (0.1 g tissue/ml homogenization buffer; PBS pH 7.4 with 0.5% hexadecyltrimethyl bromide) and centrifuged at 1.4×10^4 g for 20 minutes. Supernatants were stored at −80° C. until samples were processed.
To assess the proteolytic activities of individual proteases in intestinal tissue samples, sample volumes of 1 μl (with 2 μg of protein) were separated by gel electrophoresis in SDS-PAGE gels containing 80 μg/ml gelatin. […] The molecular weights of the proteases were estimated by use of a standard protein ladder (Invitrogen). Gels were digitized and bands were analyzed by densitometry in ImageJ (rsbweb.nih.gov/ij/).
These gels were compared to a concurrently run gel processed normally.

[1] = tested on: MMP-9 dimers, pro-MMP-2, MMP-2, MMP-1 or MMP-3; test: Gelatin gel zymography of pre-ischemic intestinal homogenates renatured with inhibitor: MMP bands; format: biochemical, rat; settings: inhibitor in renaturing and developing buffer: tranexamic acid 20 mM, doxycycline 1 mg/ml, GM-6001 1 ug/ml
Protocol: Gelatin Gel Zymography—Segments 2 and 7 from pre-ischemic intestines were homogenized (0.1 g tissue/ml homogenization buffer; PBS pH 7.4 with 0.5% hexadecyltrimethyl bromide) and centrifuged at 1.4×10^4 g for 20 minutes. Supernatants were stored at −80° C. until samples were processed. To assess the proteolytic activities of individual proteases in intestinal tissue samples, sample volumes of 1 μl (with 2 μg of protein) were separated by gel electrophoresis in SDS-PAGE gels containing 80 μg/ml gelatin. […] The molecular weights of the proteases were estimated by use of a standard protein ladder (Invitrogen). Gels were digitized and bands were analyzed by densitometry in ImageJ (rsbweb.nih.gov/ij/). […] These gels were compared to a concurrently run gel processed normally.

intestinal villi cells = test: TUNEL labeling of ischemic intestine (apoptosis); design: species or system rat; settings: after 2 hrs ex vivo ischemia
Source text: To assess the level of apoptosis after ischemia, in situ terminal transferase dUTP nick end labeling (TUNEL) labeling was completed using a kit (Trevigen, Gaithersburg, Md.) according to manufacturer's instructions. Sections were counterstained with 0.05% toluidine blue in 1% boric acid to contrast 3,3′-diaminobenzidine (DAB) positive nuclei (brown) from negatively stained nuclei (blue). Prior to mounting, all slides were dehydrated (70, 95, 100% ethanol) and cleaned with xylene. After air-drying overnight, sections were mounted using Hard Set Mounting Media (Vector Laboratories, Burlingame, Calif.). Digital images were captured with a 20× objective (numerical aperture 0.5) and digitally montaged together after background subtraction.

SMILES	20 kDa serine protease activity bands (20 kDa serine proteases)	MMP gelatinase activity bands (220 kDa MMP-9 dimers, pro-MMP-2, MMP-2, 50 kDa band) [1]	apoptosis (TUNEL labeling) (intestinal villi cells)
NC[C@H]1CC[C@H](C(=O)O)CC1 [tranexamic acid]	no significant effect	significantly reduce	
O=C[C@H](O)[C@@H](O)[C@H](O)[C@H](O)CO [Glucose, glucose]			little apoptosis in the villi
